From US8158811B2, “Unsaturated fatty hydroxy acid derivatives and the dermocosmetologic use thereof” (Pierre Fabre Dermo-Cosmetique, priority 2005, dated 2012)

test system: membrane lipids, fibroblast line L929; assay: TBARS test, lipid peroxidation after H2O2/Fe2+/Fe3+; format: cell-based, murin; conditions: 0.02 ng/ml, pretreated 16 hours
From the text: In order to evaluate membrane changes, we measured lipid peroxidation by in vitro assay of complexes between the products of lipid oxidation and thiobarbituric acid. These complexes are called TBARS (thiobarbituric acid reactive substances) and give the test its name: TBARS Test.
In order to mimic chemical oxidative stress, we treated a fibroblast line (L929) with a complex consisting of hydrogen peroxide (H2O2) and iron (Fe^2+/Fe^3+) thus reconstituting the Fenton reaction which is the source of oxygenated free radicals and particularly the hydroxyl radical (OH°) (D. A Vessey et al. 1992): H2O2+Fe^2+→OH°+OH^−+Fe^3+
The products were evaluated on a murin fibroblast line L929. Cells were pretreated with different concentrations of the product for 16 hours and were then stimulated with the H2O2/Fe^2+/Fe^3+ complex (200 μM−1 mM) for 1 hour. • Stock solutions: 100 mg/ml ethanol, 4° C. • Final solutions: 0.02 ng/ml.
Peroxidation of membrane lipids was analysed by measuring TBARS (Protocol ref. PLN°2, according to Morliere et al, 1991).
[…]. TBARS assays are therefore expressed in pmole/μg of protein. Proteins and TBARS are assayed in the intracellular medium.
Using the TBARS calculation in pmole/μg protein, we calculated the protective efficacy of various products against the oxidation of lipid membranes.
Four separate experiments were carried out. Several compounds were evaluated in the course of these experiments (the test only allows 10 molecules to be evaluated at one time). The compounds were evaluated several times and were chosen as a function of the results obtained in another test which also measured anti-radical activity (assay test for activated oxygen species).
The model used in this experiment (Fenton reaction) triggers considerable lipid peroxidation of the L929 fibroblasts. This massive release of the hydroxyl radical OH° thus generates oxidative stress in the cells, particularly in the membranes. However, in this type of oxidative reaction, the products resulting from lipid peroxidation are internalized in the cells and TBARS are therefore assayed in the intracellular medium.

Compound | % membrane lipid protection, Mean [%]
O=C(O)C(F)=CCCCCCO (mixture of isomers) [n=4, R=H, Rn=H, R1=F] | 36.54
O=C(O)C=CCCCCO [n=3, R=H, Rn=H, R1=H] | 15.7
O=C(O)C=CCCCCCO [n=4, R=H, Rn=H, R1=H] | 37.88
O=C(O)/C=C/CCCCCCCCCCO [n=9, R=H, Rn=H, R1=H, 13-hydroxy-tridec-2t-enoic acid] | 8.72
O=C(O)C(F)=CCCCCCCCCCCCO [n=10, R=H, Rn=H, R1=F, 14-hydroxy-tetradec-2-fluoro-2-enoic acid] | 13.13
O=C(O)/C=C/CCCCCCCCCCCO [n=10, R=H, Rn=H, R1=H, 14-hydroxy-tetradec-2t-enoic acid] | 27.18
O=C(O)C(F)=CCCCCCCCCCCCCCCO [n=13, R=H, Rn=H, R1=F, 17-hydroxy-heptadec-2-fluoro-2-enoic acid] | 7.39
O=C(O)/C=C/CCCCCCCCCCCCCCO [n=13, R=H, Rn=H, R1=H, 17-hydroxy-heptadec-2t-enoic acid] | 22.10

test system: desaturase DES2; assay: keratinocyte differentiation, real-time RT-PCR of DES2 transcripts; format: cell-based, human; conditions: 1 μg/ml, NHK, 48 hours
Protocol: Normal human keratinocytes (NHK) proliferate and differentiate in vitro, forming stratified layers which mimic the basal organisation of the skin. Extracellular calcium concentrations in excess of 0.1 mM initiate a cascade of genome and non-genome events which take the keratinocytes from a proliferative phase towards a differentiation phase. Keratinocyte differentiation can then be evaluated by studying the expression of several markers such as keratins 1 and 10, transglutaminase 1, desaturase DES2, involucrine, FATP4 and ABCG1 transporters. We therefore evaluated the effect of certain hydroxyalcene carboxylic acids in an in vitro culture model.
Normal human keratinocytes are isolated from skin explants. They are cultured in KSFM medium (Gibco) with a low calcium content (0.1 mM) containing 25 μg/ml of BPE (bovine pituitary extract) and […] of EGF (epithelium growth factor). 24 hours after culturing, differentiation is triggered by the addition of calcium (final concentration 1.2 mM). The active ingredients are added or not at the same time as calcium at concentrations of 100 and 1 μg/ml in order to determine whether or not they have a potentialising effect on differentiation. Cells were then analysed 48 hours after the addition of calcium and these products.
Total RNA was extracted under cold conditions from keratinocytes.
After reverse transcription of mRNA into cDNA, PCRs were made up in 96 well plates (iCycler quantitative PCR apparatus, BioRad). Expression of transcripts of transglutaminase, desaturase (DES2), ABCG1 and FATP4 were standardized with respect to the expression of reference genes (GAPDH, UBC, HPRT).

Compound | Induction Factor vs Control (CaCl2 1.2 mM) DES2
O=C(O)C(F)=CCCCCCO (mixture of isomers) [n=4, R=H, Rn=H, R1=F] | 2.2
O=C(O)C=CCCCCO [n=3, R=H, Rn=H, R1=H] | 1.6
O=C(O)C=CCCCCCO [n=4, R=H, Rn=H, R1=H] | 1.0
O=C(O)/C=C/CCCCCCCCCCO [n=9, R=H, Rn=H, R1=H, 13-hydroxy-tridec-2t-enoic acid] | 1.8
O=C(O)C(F)=CCCCCCCCCCCCO [n=10, R=H, Rn=H, R1=F, 14-hydroxy-tetradec-2-fluoro-2-enoic acid] | 1.6
O=C(O)/C=C/CCCCCCCCCCCO [n=10, R=H, Rn=H, R1=H, 14-hydroxy-tetradec-2t-enoic acid] | 2.0
O=C(O)C(F)=CCCCCCCCCCCCCCCO [n=13, R=H, Rn=H, R1=F, 17-hydroxy-heptadec-2-fluoro-2-enoic acid] | 9.0
O=C(O)/C=C/CCCCCCCCCCCCCCO [n=13, R=H, Rn=H, R1=H, 17-hydroxy-heptadec-2t-enoic acid] | 3.0

same assay, conditions: 100 μg/ml, NHK, 48 hours

Compound | Induction Factor vs Control (CaCl2 1.2 mM) DES2
O=C(O)C(F)=CCCCCCO (mixture of isomers) [n=4, R=H, Rn=H, R1=F] | 3.2
O=C(O)C=CCCCCO [n=3, R=H, Rn=H, R1=H] | 2.4
O=C(O)C=CCCCCCO [n=4, R=H, Rn=H, R1=H] | 2.2
O=C(O)/C=C/CCCCCCCCCCO [n=9, R=H, Rn=H, R1=H, 13-hydroxy-tridec-2t-enoic acid] | 51.7
O=C(O)C(F)=CCCCCCCCCCCCO [n=10, R=H, Rn=H, R1=F, 14-hydroxy-tetradec-2-fluoro-2-enoic acid] | 16.0
O=C(O)/C=C/CCCCCCCCCCCO [n=10, R=H, Rn=H, R1=H, 14-hydroxy-tetradec-2t-enoic acid] | 125.8

test system: prostaglandin 6KF1α; assay: production of prostaglandin 6KF1α by keratinocytes stimulated with calcium ionophore A23187 (ELISA); format: cell-based; conditions: 3 μg/ml, A23187 1 μm 5 hours
Protocol: A suspension of keratinocytes in DMEM 10% foetal calf serum was divided into 6 well plates (1.2. 106cells/wells) and incubated for 16 hours at 37° C. in a 5% CO2 atmosphere. The keratinocytes were then rinsed with PBS in order to eliminate non adhering cells then exposed to the products to be tested included in DMEM without foetal calf serum (which could interfere with the assay).
The concentration tested in culture was 3 μg/ml. This was retained as the test concentration after a preliminary evaluation test for cytotoxicity (neutral red) and is not cytotoxic.
For each treatment, three wells were tested. Cells were pre-incubated for 60 minutes with the products to be tested then a stimulating agent was added to stimulate the arachidonic acid cascade (calcium ionophore) which was added for 5 hours: calcium ionophore A23187 was used at a concentration of 1 μm.
After 5 hours in culture, the culture medium for each well was recovered, centrifuged at 3000 rpm and stored at −80° C.
The production of prostaglandin 6KF1α for each of the tests was measured using a EUROMEDEX Elisa Kit.
Results are expressed as the percentage activity/stimulated control.

Compound | % inhibiting activity of evaluated molecules on the production of PG6KF1α Inflammation
O=C(O)C(F)=CCCCCCO (mixture of isomers) [n=4, R=H, Rn=H, R1=F] | 30%
O=C(O)C=CCCCCO [n=3, R=H, Rn=H, R1=H] | 29%
O=C(O)/C=C/CCCCCCCCCCO [n=9, R=H, Rn=H, R1=H, 13-hydroxy-tridec-2t-enoic acid] | 31%
O=C(O)C(F)=CCCCCCCCCCCCO [n=10, R=H, Rn=H, R1=F, 14-hydroxy-tetradec-2-fluoro-2-enoic acid] | 18%
O=C(O)/C=C/CCCCCCCCCCCO [n=10, R=H, Rn=H, R1=H, 14-hydroxy-tetradec-2t-enoic acid] | Non active
O=C(O)C(F)=CCCCCCCCCCCCCCCO [n=13, R=H, Rn=H, R1=F, 17-hydroxy-heptadec-2-fluoro-2-enoic acid] | 14%
O=C(O)/C=C/CCCCCCCCCCCCCCO [n=13, R=H, Rn=H, R1=H, 17-hydroxy-heptadec-2t-enoic acid] | 25%

test system: Interleukin 8; assay: release of Interleukin 8 by keratinocytes NHK stimulated with PMA + calcium ionophore A23187 (ELISA); format: cell-based, human; conditions: 3 μg/ml, keratinocytes, PMA + A23187 6 hours
Protocol: In this study, carried out using 96 well plates, we evaluated the activity of hydroxyl alkine acids on the production of Interleukin 8 produced in the keratinocytes by phorbol ester PMA and calcium ionophore A23187.
A suspension of keratinocytes in supplemented KSFM was divided between 96 well plates (3.10^4 cells/wells) and incubated for 16 hours at 37° C. under an atmosphere of 5% CO2. The keratinocytes were then rinsed with PBS in order to eliminate non adhering cells then exposed to the products to be tested included in non supplemented KSFM (which could interfere with the assay).
The concentration tested in culture was 3 μg/ml. This was retained after a preliminary test to evaluate cytotoxicity (neutral red) and is not cytotoxic.
3 wells were used for each treatment. Cells were preincubated for 60 minutes with the products to be tested then stimulated, in parallel to negative controls without stimulant: Phorbol Myristate Acetate (PMA) 1 μm+Calcium ionophore (A23187) 0.1 μm.
Incubation for 6 hours at 37° C. in a humid air atmosphere containing 5% CO2.
The culture medium for each of the wells was recovered, centrifuged at 3000 rpm and stored at −80° C.
Cytokine assay: IL8 was assayed using the ELISA kit immunoenzyme method (immunotech).
The results are given as percentage activity/stimulated control.
The compounds according to the invention were evaluated in terms of anti-inflammatory activity on the release of Interleukin 8 by human keratinocytes NHK stimulated by phorbol ester PMA+calcium ionophore A23187.

Compound | % inhibition of IL-8 release
O=C(O)C(F)=CCCCCCO (mixture of isomers) [n=4, R=H, Rn=H, R1=F] | Non-active
O=C(O)C=CCCCCO [n=3, R=H, Rn=H, R1=H] | 50%
O=C(O)C=CCCCCCO [n=4, R=H, Rn=H, R1=H] | 15%
O=C(O)/C=C/CCCCCCCCCCO [n=9, R=H, Rn=H, R1=H, 13-hydroxy-tridec-2t-enoic acid] | 16%
O=C(O)C(F)=CCCCCCCCCCCCO [n=10, R=H, Rn=H, R1=F, 14-hydroxy-tetradec-2-fluoro-2-enoic acid] | 30%
O=C(O)/C=C/CCCCCCCCCCCO [n=10, R=H, Rn=H, R1=H, 14-hydroxy-tetradec-2t-enoic acid] | 30%
O=C(O)C(F)=CCCCCCCCCCCCCCCO [n=13, R=H, Rn=H, R1=F, 17-hydroxy-heptadec-2-fluoro-2-enoic acid] | 107%
O=C(O)/C=C/CCCCCCCCCCCCCCO [n=13, R=H, Rn=H, R1=H, 17-hydroxy-heptadec-2t-enoic acid] | 62%

same assay, conditions: IL8 release, NHK, PMA + A23187

Compound | % Inhibition a 3 μg/ml [%]
O=C(O)C(F)=CCCCCCCCCCCCCCCO [n=13, R=H, Rn=H, R1=F, 17-hydroxy-heptadec-2-fluoro-2-enoic acid] | 107
O=C(O)/C=C/CCCCCCCCCCCCCCO [n=13, R=H, Rn=H, R1=H, 17-hydroxy-heptadec-2t-enoic acid] | 62
